Common to all, as to test: NCI-60 cell line screen, 48 h
For assay [1], the system named is MDA-N.
For assay [2], the system named is HOP-18.
Assay [3] concerns DMS-114.
In assay [4] the test system is KM-20L2.
The subject of assay [5] is LXFL 529.
Assay [6] relates to DMS-273.
For assay [7], the system named is SNB-78.
Assay [8] has as its system RXF 631.
In assay [9] the test system is XF498.

Each structure is given as a SMILES string.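 Grown in 96-well plates, cells were treated for 48 hours with each compound at five concentrations. Insufficient inhibition: endpoint recorded as highest concentration tested. GI50: concentration for 50% inhibition of growth.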 The source made the active and inactive calls. Cut-off read from the data, not from the text of the source: active = GI50 up to about 1.1 µM and inactive = higher. Where a SMILES comes first, the peptide text is derived from it. The star is where a group is joined. CH2Cl = ClC* Bounds are passed on as bounds.

Take `Cc1cc(S(=O)(=O)Nc2nnc3cc(C(F)(F)F)cc(C)n23)c(S)cc1Cl`: in assay [1], the GI50 was > 100 µM (inactive).

Consider `O=C(O)c1cc(C(=O)O)nc(C(=O)O)c1`, for which the GI50 in [1] is > 100 µM (inactive).

As for `O=C(CCN1CCOCC1)Nc1ccc(F)cc1F`, the GI50 in [1] is > 100 µM (inactive).

Take `Cc1ccc(-c2nc3cc([N+](=O)[O-])ccc3[nH]2)cc1`: in assay [1], the GI50 was > 100 µM (inactive).

Turning to `N=C1c2ccccc2C(=O)c2c(NCCNCCO)ccc(O)c21`, the GI50 in [2] was 11.5 µM (inactive); in assay [3], 3.93 µM (inactive); in [4], 5 µM (inactive); in assay [5], 6.5 µM (inactive); in assay [6], 5.57 µM (inactive); in assay [7], 18.8 µM (inactive).

Regarding `CC[P+](c1ccccc1)(N(C)C)N(C)C`, the GI50 in [1] was > 100 µM (inactive).

Consider `CC1=C2CCCC2C/C(=N/Nc2ccc([N+](=O)[O-])cc2[N+](=O)[O-])CC1` (stereo not given), for which the GI50 in [2], in [3], in assay [4], in assay [8], in assay [5] and in [9] was > 100 µM (inactive) each time. The GI50 in assay [6] was > 100 µM (inactive).

For `CC(C)C1OC(/C=C/c2ccccc2)OCC1(C)C` (stereo not given), in [1], the GI50 was 36.3 µM (inactive).

Consider `COc1c(O)c2ccccc2c2cc(O)ccc12`, for which the GI50 in [2] was 1.75 µM (inactive); in assay [3], 1.97 µM (inactive); in [4], 22.5 µM (inactive); in assay [1], 1.08 µM (active); in assay [5] it was 2.59 µM (inactive); in assay [9] it was 2.69 µM (inactive). Moreover, the results for the GI50 in assay [6] and in assay [7] were 6.65 µM (inactive) and 15.5 µM (inactive), respectively.

Turning to `CCOC(=O)Cc1nc2nn(Cc3ccccc3)cc2c(=O)[nH]1`, in assay [1], the GI50 is > 100 µM (inactive).

For the compound `CN(C)c1ccc2nc3c(C(=O)O)cc(O)c(O)c3[o+]c2c1`, the GI50 in [1] is 23.1 µM (inactive).

On to `O=P1(Oc2ccccc2)N=P(c2ccccc2)(c2ccccc2)C=C(c2ccc(Cl)cc2)N1` (stereo not given), for which the GI50 in assay [1] was 8.87 µM (inactive).

As for `Cc1ccc2c(c1)NC(=O)C(N=[N+]=[N-])(c1ccccc1)C2=O` (stereo not given), the GI50 in assay [2] is 26.1 µM (inactive); in [3] it was 34.3 µM (inactive); in [4], 30.3 µM (inactive); in assay [5], 24 µM (inactive); in assay [9], 24.7 µM (inactive); in assay [6], 12.3 µM (inactive). Also, the GI50 in [7] is 28.1 µM (inactive).

In the case of `Cc1c2c(c(O)c3c(O)cccc13)C(=O)C1(O)C(=O)C(C(=O)NCNc3ccc(C(N)=O)cn3)=C(O)C(N(C)C)C1C2` (stereo not given), the GI50 in assay [1] is 4.49 µM (inactive).

In the case of `C[C@]12CCC(=O)C=C1CC[C@@H]1C2CC[C@]2(C)Nc3c(cnn3-c3ccccc3)CC12` (stereo not given in full), the GI50 in assay [3] was > 100 µM (inactive); in [4], > 100 µM (inactive); in assay [8], 96.8 µM (inactive); in assay [5], > 100 µM (inactive); in assay [9], > 100 µM (inactive); in assay [6] it was > 100 µM (inactive). Moreover, in assay [7], the GI50 was > 100 µM (inactive).

As to `CN(C)c1ccc(C2=C([O-])c3cc(-[n+]4ccccc4)ccc3C2=O)cc1`, in assay [1], the GI50 is > 100 µM (inactive).

As for `CC(=O)Nc1ccc(N2C(=O)/C(=C\c3cccc(Oc4ccccc4)c3)SC2c2ccccc2)cc1` (stereo not given), in [1], the GI50 is 18.9 µM (inactive).

With `O=C(NCCc1n[nH]c2c1C(=O)C=C(Nc1ccccc1)C2=O)OCc1ccccc1`, the GI50 in [1] was > 100 µM (inactive).

Regarding `C/C(=N/NC(=O)C[n+]1ccccc1)C(CN(CC(C)C)CC(C)C)C(=O)Nc1ccc(C)cc1C` (stereo not given), the GI50 in [3], in assay [4] and in [8] was > 100 µM (inactive) throughout.

Turning to `COc1ccc(N(C)CN(C)c2nc(N(C)C)nc(N(C)C)n2)cc1`, the GI50 in [2], in assay [3], in [4], in assay [5], in [6] and in assay [7] was > 100 µM (inactive) in each case.

With `c1ccc(C(CCN2CCCC2)c2ccccn2)cc1` (stereo not given), in [1], the GI50 is > 100 µM (inactive).

In the case of `O=C(N/N=C/c1c(-c2ccccc2)no[n+]1[O-])N1CCOCC1`, the GI50 in assay [1] is > 100 µM (inactive).

Consider `Cc1ccc2nc(Cl)c(/C=N/N3C(=O)/C(=C/c4cccc([N+](=O)[O-])c4)N=C3c3ccccc3)cc2c1`, for which the GI50 in assay [1] is 20.4 µM (inactive).

As for `Cc1c(C=C(C#N)C#N)c(=O)n(C)c(=O)n1C`, the GI50 in [1] was > 100 µM (inactive).

As to `O=C1C=C(Nc2cccnc2)c2ccccc2/C1=N/O`, in assay [1], the GI50 was 12.6 µM (inactive).

Turning to `C=CCn1c(=O)c2ccccc2[n+]2c(-c3cccc([N+](=O)[O-])c3)csc12`, the GI50 in [1] was 66.2 µM (inactive).

For `CCn1c(=O)c2cn[nH]c2n(C)c1=O`, in assay [1], the GI50 was > 100 µM (inactive).

With `Nc1c(-c2ccc(Cl)c(Cl)c2)c2ccc([N+](=O)[O-])cc2c(=O)n1-c1nc2ccccc2s1`, the GI50 in [1] was 0.697 µM (active).

Take `O=c1cc(-c2ccccc2)[nH]c2ccc(N3CCOCC3)cc12`: the GI50 in assay [1] is < 0.01 µM (active).

Take `Oc1ccc2c3c1OC1c4[nH]c5c(c4CC4(O)C(C2)N(CC2CC2)CC[C@]314)CC1(O)C2Cc3ccc(O)c4c3[C@@]1(CCN2CC1CC1)C5O4` (stereo not given in full): the GI50 in [1] was 18.4 µM (inactive).

With `Cc1n(Cc2ccccc2)c2c([n+]1C)C(=O)c1ccccc1C2=O`, the GI50 in assay [1] is 0.173 µM (active).

For `CN1CCC23c4c5ccc(O)c4OC2c2[nH]c4ccccc4c2CC3(O)C1C5` (stereo not given), in assay [1], the GI50 is 20 µM (inactive).

Turning to `CO/C(=N\N=C\c1ccccc1F)c1ccncc1`, the GI50 in assay [1] was > 10 µM (inactive).

As for `COC1CC(OC(=O)c2ccccc2)C(OC(=O)c2ccccc2)C(C)O1` (stereo not given), the GI50 in assay [1] was > 100 µM (inactive).

In the case of `O=c1/c(=C/c2ccccc2[N+](=O)[O-])sc2nnc(-c3ccco3)n12`, the GI50 is 25.1 µM (inactive) in assay [2]; 20 µM (inactive) in assay [3]; 91 µM (inactive) in assay [4]; 19 µM (inactive) in assay [5]; 18.4 µM (inactive) in [9]; 28.7 µM (inactive) in assay [6]. The GI50 in [7] is 25.7 µM (inactive).

`O=c1oc2ccccc2cc1/C=N/N1C(=S)N(c2ccccc2)C(=N\c2ccccc2)/C1=N/c1ccccc1`: the GI50 in assay [1] was 20.5 µM (inactive).

Turning to `COc1nc(C(=O)O)c(Cl)c(OC)c1Cl`, the GI50 in [3] and in [4] was > 100 µM (inactive) in each case.

As for `COC(=O)c1ccccc1C1CN=NC12Cc1c(C)ccc(C)c1C2=O` (stereo not given), in assay [1], the GI50 was > 100 µM (inactive).

Consider `COc1ccc(C)cc1-c1ccc(-c2cc(C)ccc2OC)o1`, for which the GI50 in [3], in assay [4], in assay [8], in assay [5], in assay [6] and in assay [7] was > 100 µM (inactive) throughout.

`C=C(Cl)C(Br)(CBr)CCC(Br)C(C)(C)Br` (stereo not given): the GI50 in assay [1] is 7.57 µM (inactive).

In the case of `O=C1N=C(S)NNC12c1ccccc1-c1ccccc12`, the GI50 in assay [1] is > 10 µM (inactive).

Take `CCOC(=O)C(=O)Nc1ccccc1OCC`: the GI50 in [2], in assay [3], in assay [5], in assay [9] and in assay [7] was > 100 µM (inactive) each time.

Take `COc1cc2c(c(OC)c1OC)C(=O)c1c(O)cc(C)c(OC)c1C2=O`: the GI50 in assay [1] was > 100 µM (inactive).

For `COc1cc(C2c3cc4c(cc3OC(NN)C2C)OCO4)cc(OC)c1OC` (stereo not given), in [1], the GI50 is 0.123 µM (active).

Consider `CC(=O)NC1=C(NCCO)C(=O)c2ccccc2C1=O`, for which the GI50 in [4] is 24.2 µM (inactive); in assay [5], > 50 µM (inactive); in assay [9] it was > 50 µM (inactive); in [6], > 50 µM (inactive); in assay [7] it was > 50 µM (inactive).

Turning to `CSC(=S)Nc1cc(C)cc(C)n1`, the GI50 in assay [1] was > 31.6 µM (inactive).

On to `Cc1cc(=O)n2c3c(c4c(cc13)c(CN(C)C)cc(=O)n4C)OC2`, for which the GI50 in assay [1] is 27.8 µM (inactive).

Take `CC1SC2=NC3=C(c4ccccc4C3=O)C(c3ccc(Cl)cc3)N2C1=O` (stereo not given): the GI50 in assay [3], in assay [4], in [8], in assay [5], in assay [9] and in assay [6] was > 100 µM (inactive) in each case.

Consider `Clc1ccc(CCNCCNC2(c3cc4ccccc4s3)CCCCC2)cc1Cl`, for which the GI50 in assay [1] is 1.84 µM (inactive).

For `COc1ccc(/C=C/C(=O)c2sc(NC(=S)NC(=O)c3ccccc3F)nc2C)cc1OC`, the GI50 in assay [2] is 22.8 µM (inactive); in assay [3], > 100 µM (inactive); in assay [4] it was > 100 µM (inactive); in assay [6], > 100 µM (inactive); in [7] it was > 100 µM (inactive).

Take `Clc1cccc(Cl)c1C1SCc2nc3cc4ccccc4cc3n21` (stereo not given): the GI50 in assay [1] was > 100 µM (inactive).

In the case of `O=S(=O)(O)c1ccc2c(/N=N/c3cccc4ccccc34)c(O)ccc2c1`, in assay [1], the GI50 is > 100 µM (inactive).

With `COC(=O)[C@@]12C3=NO[C@]1(C(=O)OC)C(O[Si](C)(C)C(C)(C)C)[C@@H](OC(C)=O)[C@@H](OC(C)=O)[C@@H]2[C@@H](OCc1ccccc1)CC3` (stereo not given in full), the GI50 in assay [2] was > 100 µM (inactive); in assay [3], 6.35 µM (inactive); in assay [4] it was > 100 µM (inactive); in assay [5], 4.45 µM (inactive); in assay [9], 15.8 µM (inactive); in assay [6], 6.05 µM (inactive). Also, the GI50 in assay [7] is > 96.2 µM (inactive).

As for `CN(C)CCCc1c[nH]c2ccccc12`, the GI50 in assay [1] is > 100 µM (inactive).

In the case of `Brc1cccc(/N=N/N2CCCC2)c1`, in assay [1], the GI50 is > 100 µM (inactive).

Regarding `C=CCN1C[C@@H](C)N([C@@H](c2ccc(C(=O)N(CC)CC)cc2)c2cccc(OC)c2)C[C@@H]1C`, the GI50 in assay [1] was > 100 µM (inactive).

Regarding `CC(=O)NC(CC(C)C)C(=O)NC(Cc1ccccc1)C(=O)CCl` (stereo not drawn) (Ac-Leu-Phe-CH2Cl; configuration not given here), the GI50 in assay [1] is 9.68 µM (inactive).

Turning to `CC(C)=CCC/C(C)=C/CO` [GERANIOL], the GI50 in [1] is > 100 µM (inactive).

Source of the values: ChEMBL document CHEMBL1201862, “PubChem BioAssay data set” (2004).
